Like-named read-outs stand apart in the source and are kept apart here. Where a SMILES comes first, the peptide text is derived from it. Bridges are numbered along the chain shown (N, C = ends). [ ]: non-standard residue; d: D form. The star is where a group is joined. Gla = N[C@@H](CC(C(=O)O)C(=O)O)C(=O)O; Benzoyl(4-F) = O=C(c1ccc(F)cc1)*; R8 = C=CCCCCCC[C@@](C)(N)C(=O)O; Cba = N[C@@H](CC1CCC1)C(=O)O; S5 = C=CCCC[C@](C)(N)C(=O)O; Aib = CC(C)(N)C(=O)O; Sar = CNCC(=O)O
What was measured:
MDM2 = MDM2 (Homo sapiens, UniProt Q00987); assay: Competitive fluorescence polarization assay for MDM2; format: binding; details: competitive FP assay, MDM2
Sequence of MDM2 (Q00987 1-125): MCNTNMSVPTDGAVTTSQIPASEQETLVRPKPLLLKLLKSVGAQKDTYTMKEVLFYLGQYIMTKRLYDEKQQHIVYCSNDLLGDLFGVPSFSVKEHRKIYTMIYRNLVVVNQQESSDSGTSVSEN

MDMX = target: T1, MDMX (Homo sapiens, UniProt O15151); assay: Competitive fluorescence polarization assay for MDMX; format: binding; details: competitive FP assay
T1 sequence (O15151 1-125): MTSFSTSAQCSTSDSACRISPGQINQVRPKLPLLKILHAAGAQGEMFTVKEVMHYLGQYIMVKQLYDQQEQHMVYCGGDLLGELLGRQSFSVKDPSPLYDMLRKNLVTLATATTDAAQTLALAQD

| SMILES | Ki (MDM2; read-out: Ki (MDM2)) [nM] | Ki (MDMX; read-out: Ki (MDMX)) [nM] | Ki (MDM2; Ki (MDM2)) [nM] | Ki (MDMX; Ki (MDMX)) [nM] |
| --- | --- | --- | --- | --- |
| CC(=O)N[C@@H](CC(C)C)C(=O)N[C@H](C(=O)N[C@@H](Cc1ccccc1)C(=O)N[C@]1(C)CCCCCCC=CCCC[C@@](C)(C(=O)N[C@@H](C)C(=O)N[C@@H](C)C(=O)N[C@@H](C)C(=O)N[C@@H](C)C(=O)N[C@@H](C)C(=O)N[C@H](C)C(N)=O)NC(=O)[C@H](CC(C)C)NC(=O)[C@H](CCC(N)=O)NC(=O)C(C)(C)NC(=O)[C@H](Cc2c[nH]c3ccccc23)NC(=O)[C@H](Cc2ccc(O)cc2)NC(=O)[C@H](CCC(=O)O)NC1=O)[C@@H](C)O [compound 561] (Ac-LTF[R8]EYW[Aib]QL[S5]AAAAA[dA]-NH2; staple 4-11) | – | – | < 10 | 10 to 100 |
| CC(=O)N[C@@H](CC(C)C)C(=O)N[C@H](C(=O)N[C@@H](Cc1ccccc1)C(=O)N[C@]1(C)CCCCCCC=CCCC[C@@](C)(C(=O)N[C@@H](C)C(=O)N[C@@H](C)C(=O)NC(C)(C)C(=O)N[C@@H](C)C(=O)N[C@@H](C)C(=O)N[C@H](C)C(N)=O)NC(=O)[C@H](CC(C)C)NC(=O)[C@H](CCC(N)=O)NC(=O)[C@H](C)NC(=O)[C@H](Cc2c[nH]c3ccccc23)NC(=O)[C@H](Cc2ccc(O)cc2)NC(=O)[C@H](CCC(=O)O)NC1=O)[C@@H](C)O [compound 563] (Ac-LTF[R8]EYWAQL[S5]AA[Aib]AA[dA]-NH2; staple 4-11) | 10 to 100 | 10 to 100 | – | – |
| CC(=O)N[C@@H](CC(C)C)C(=O)N[C@H](C(=O)N[C@@H](Cc1ccccc1)C(=O)N[C@]1(C)CCCCCCC=CCCC[C@@](C)(C(=O)N[C@@H](C)C(=O)N[C@@H](C)C(=O)N(C)CC(=O)N[C@@H](C)C(=O)N[C@@H](C)C(=O)N[C@H](C)C(N)=O)NC(=O)[C@H](CC(C)C)NC(=O)[C@H](CCC(N)=O)NC(=O)[C@H](C)NC(=O)[C@H](Cc2c[nH]c3ccccc23)NC(=O)[C@H](Cc2ccc(O)cc2)NC(=O)[C@H](CCC(=O)O)NC1=O)[C@@H](C)O [compound 575] (Ac-LTF[R8]EYWAQL[S5]AA[Sar]AA[dA]-NH2; staple 4-11) | < 10 | 10 to 100 | – | – |
| CC(=O)N[C@@H](CC(C)C)C(=O)N[C@H](C(=O)N[C@@H](Cc1ccccc1)C(=O)N[C@]1(C)CCCCCCC=CCCC[C@@](C)(C(=O)N[C@@H](C)C(=O)N[C@@H](C)C(=O)N[C@@H](C)C(=O)N(C)CC(=O)N[C@@H](C)C(=O)N[C@H](C)C(N)=O)NC(=O)[C@H](CC(C)C)NC(=O)[C@H](CCC(N)=O)NC(=O)[C@H](C)NC(=O)[C@H](Cc2c[nH]c3ccccc23)NC(=O)[C@H](Cc2ccc(O)cc2)NC(=O)[C@H](CCC(=O)O)NC1=O)[C@@H](C)O [compound 576] (Ac-LTF[R8]EYWAQL[S5]AAA[Sar]A[dA]-NH2; staple 4-11) | < 10 | 10 to 100 | – | – |
| CC(=O)N[C@@H](CC(C)C)C(=O)N[C@H](C(=O)N[C@@H](Cc1ccccc1)C(=O)N[C@]1(C)CCCCCCC=CCCC[C@@](C)(C(=O)N[C@@H](C)C(=O)N[C@@H](C)C(=O)N[C@@H](C)C(=O)N[C@@H](C)C(=O)N(C)CC(=O)N[C@H](C)C(N)=O)NC(=O)[C@H](CC(C)C)NC(=O)[C@H](CCC(N)=O)NC(=O)[C@H](C)NC(=O)[C@H](Cc2c[nH]c3ccccc23)NC(=O)[C@H](Cc2ccc(O)cc2)NC(=O)[C@H](CCC(=O)O)NC1=O)[C@@H](C)O [compound 577] (Ac-LTF[R8]EYWAQL[S5]AAAA[Sar][dA]-NH2; staple 4-11) | < 10 | 10 to 100 | – | – |
| CC(C)C[C@H](NC(=O)c1ccc(F)cc1)C(=O)N[C@H](C(=O)N[C@@H](Cc1ccccc1)C(=O)N[C@]1(C)CCCCCCC=CCCC[C@@](C)(C(=O)N[C@@H](C)C(=O)N[C@@H](C)C(=O)N[C@@H](C)C(=O)N[C@@H](C)C(=O)N[C@@H](C)C(=O)N[C@H](C)C(N)=O)NC(=O)[C@H](CC(C)C)NC(=O)[C@H](CCC(N)=O)NC(=O)[C@H](C)NC(=O)[C@H](Cc2c[nH]c3ccccc23)NC(=O)[C@H](Cc2ccc(O)cc2)NC(=O)[C@H](CCC(=O)O)NC1=O)[C@@H](C)O [compound 596] ({Benzoyl(4-F)}-LTF[R8]EYWAQL[S5]AAAAA[dA]-NH2; staple 4-11) | – | – | < 10 | 10 to 100 |
| CC(=O)N[C@@H](CC(C)C)C(=O)N[C@H](C(=O)N[C@@H](Cc1ccccc1)C(=O)N[C@]1(C)CCCCCCC=CCCC[C@@](C)(C(=O)N[C@@H](C)C(=O)N[C@@H](C)C(=O)N[C@@H](C)C(=O)N[C@@H](C)C(=O)N[C@@H](C)C(=O)N[C@H](C)C(N)=O)NC(=O)[C@H](CC(C)C)NC(=O)[C@H](CCC(N)=O)NC(=O)[C@H](C)NC(=O)[C@H](Cc2c[nH]c3ccccc23)NC(=O)[C@H](Cc2ccc(O)cc2)NC(=O)[C@H](CCCNC(=N)N)NC1=O)[C@@H](C)O [compound 598] (Ac-LTF[R8]RYWAQL[S5]AAAAA[dA]-NH2; staple 4-11) | – | – | < 10 | 10 to 100 |
| CC(=O)N[C@@H](CC(C)C)C(=O)N[C@H](C(=O)N[C@@H](Cc1ccccc1)C(=O)N[C@]1(C)CCCCCCC=CCCC[C@@](C)(C(=O)N[C@@H](C)C(=O)N[C@@H](C)C(=O)N[C@@H](C)C(=O)N[C@@H](C)C(=O)N[C@@H](C)C(=O)N[C@H](C)C(N)=O)NC(=O)[C@H](CC(C)C)NC(=O)[C@H](CCC(N)=O)NC(=O)[C@H](C)NC(=O)[C@H](Cc2c[nH]c3ccccc23)NC(=O)[C@H](Cc2ccc(O)cc2)NC(=O)[C@H](CCC(N)=O)NC1=O)[C@@H](C)O [compound 600] (Ac-LTF[R8]QYWAQL[S5]AAAAA[dA]-NH2; staple 4-11) | – | – | < 10 | < 10 |
| CC(=O)N[C@@H](CC(C)C)C(=O)N[C@H](C(=O)N[C@@H](Cc1ccccc1)C(=O)N[C@]1(C)CCCCCCC=CCCC[C@@](C)(C(=O)N[C@@H](C)C(=O)N[C@@H](C)C(=O)N[C@@H](C)C(=O)N[C@@H](C)C(=O)N[C@@H](C)C(=O)N[C@H](C)C(N)=O)NC(=O)[C@H](CC(C)C)NC(=O)[C@H](CCC(N)=O)NC(=O)[C@H](C)NC(=O)[C@H](Cc2c[nH]c3ccccc23)NC(=O)[C@H](Cc2ccc(O)cc2)NC(=O)[C@H](CC(C(=O)O)C(=O)O)NC1=O)[C@@H](C)O [compound 602] (Ac-LTF[R8][Gla]YWAQL[S5]AAAAA[dA]-NH2; staple 4-11) | – | – | < 10 | < 10 |

Continued, in another order:

| Ki (MDM2; read-out: Ki (MDM2)) [nM] | Ki (MDMX; read-out: Ki (MDMX)) [nM] | SMILES | Ki (MDM2; Ki (MDM2)) [nM] | Ki (MDMX; Ki (MDMX)) [nM] |
| --- | --- | --- | --- | --- |
| 10 to 100 | 10 to 100 | CC(=O)N[C@@H](CC(C)C)C(=O)N[C@H](C(=O)N[C@@H](Cc1ccccc1)C(=O)N[C@]1(C)CCCCCC/C=C/CCC[C@@](C)(C(=O)N[C@@H](C)C(=O)NC(C)(C)C(=O)N[C@@H](C)C(=O)N[C@@H](C)C(=O)N[C@@H](C)C(=O)N[C@H](C)C(N)=O)NC(=O)[C@H](CC(C)C)NC(=O)[C@H](CCC(N)=O)NC(=O)[C@H](C)NC(=O)[C@H](Cc2c[nH]c3ccccc23)NC(=O)[C@H](Cc2ccc(O)cc2)NC(=O)[C@H](CCC(=O)O)NC1=O)[C@@H](C)O [compound 562] (Ac-LTF[R8]EYWAQL[S5]A[Aib]AAA[dA]-NH2; staple (E) 4-11) | – | – |
| < 10 | 10 to 100 | CC(=O)N[C@@H](CC(C)C)C(=O)N[C@H](C(=O)N[C@@H](Cc1ccccc1)C(=O)N[C@]1(C)CCCCCCC=CCCC[C@@](C)(C(=O)N[C@@H](C)C(=O)N(C)CC(=O)N[C@@H](C)C(=O)N[C@@H](C)C(=O)N[C@@H](C)C(=O)N[C@H](C)C(N)=O)NC(=O)[C@H](CC(C)C)NC(=O)[C@H](CCC(N)=O)NC(=O)[C@H](C)NC(=O)[C@H](Cc2c[nH]c3ccccc23)NC(=O)[C@H](Cc2ccc(O)cc2)NC(=O)[C@H](CCC(=O)O)NC1=O)[C@@H](C)O [compound 574] (Ac-LTF[R8]EYWAQL[S5]A[Sar]AAA[dA]-NH2; staple 4-11) | – | – |
| 10 to 100 | 10 to 100 | CC(=O)N[C@@H](CC(C)C)C(=O)N[C@H](C(=O)N[C@@H](Cc1ccccc1)C(=O)N[C@]1(C)CCCCCCC=CCCC[C@@](C)(C(=O)N[C@@H](C)C(=O)N[C@@H](C)C(=O)N[C@@H](C)C(=O)N[C@@H](C)C(=O)N[C@H](C)C(N)=O)NC(=O)[C@H](CC(C)C)NC(=O)[C@H](CCC(N)=O)NC(=O)[C@H](C)NC(=O)[C@H](Cc2c[nH]c3ccccc23)NC(=O)[C@H](Cc2ccc(O)cc2)NC(=O)[C@H](CCC(=O)O)NC1=O)[C@@H](C)O [compound 585] (Ac-LTF[R8]EYWAQL[S5]AAAA[dA]-NH2; staple 4-11) | – | – |
| < 10 | 10 to 100 | CC(=O)N[C@@H](CC(C)C)C(=O)N[C@H](C(=O)N[C@@H](Cc1ccccc1)C(=O)N[C@]1(C)CCCCCCC=CCCC[C@@](C)(C(=O)N[C@@H](C)C(=O)N[C@@H](C)C(=O)N[C@@H](C)C(=O)N[C@H](C)C(N)=O)NC(=O)[C@H](CC(C)C)NC(=O)[C@H](CCC(N)=O)NC(=O)[C@H](C)NC(=O)[C@H](Cc2c[nH]c3ccccc23)NC(=O)[C@H](Cc2ccc(O)cc2)NC(=O)[C@H](CCC(=O)O)NC1=O)[C@@H](C)O [compound 586] (Ac-LTF[R8]EYWAQL[S5]AAA[dA]-NH2; staple 4-11) | – | – |
| < 10 | < 10 | CC(=O)N[C@@H](CC(C)C)C(=O)N[C@H](C(=O)N[C@@H](Cc1ccccc1)C(=O)N[C@]1(C)CCCCCCC=CCCC[C@@](C)(C(=O)N[C@@H](C)C(=O)N[C@@H](C)C(=O)N[C@H](C)C(N)=O)NC(=O)[C@H](CC(C)C)NC(=O)[C@H](CCC(N)=O)NC(=O)[C@H](C)NC(=O)[C@H](Cc2c[nH]c3ccccc23)NC(=O)[C@H](Cc2ccc(O)cc2)NC(=O)[C@H](CCC(=O)O)NC1=O)[C@@H](C)O [compound 587] (Ac-LTF[R8]EYWAQL[S5]AA[dA]-NH2; staple 4-11) | – | – |
| < 10 | < 10 | CC(=O)N[C@@H](CC(C)C)C(=O)N[C@H](C(=O)N[C@@H](Cc1ccccc1)C(=O)N[C@]1(C)CCCCCCC=CCCC[C@@](C)(C(=O)N[C@@H](CO)C(=O)O)NC(=O)[C@H](CC2CCC2)NC(=O)[C@H](CCC(N)=O)NC(=O)[C@H](C)NC(=O)[C@H](Cc2c[nH]c3ccccc23)NC(=O)[C@H](Cc2ccc(O)cc2)NC(=O)[C@H](CCC(=O)O)NC1=O)[C@@H](C)O [compound 594] (Ac-LTF[R8]EYWAQ[Cba][S5]S-OH; staple 4-11) | – | – |
